Assay results as given in patent publication US12383539B2 (Cavion, Inc., priority 2018, dated 2025).
“And” between values parts separate entries of the source, which are not always exact repeats. Equal entries are not always repeated. Where two headings read alike, the source gives them in different places.

How the values were obtained:
[1] = format: in vivo; details: rat NOAEL 300 mg/kg, human 10 mg BID
[2] = format: in vivo; details: dog NOAEL 30 mg/kg, human 10 mg BID
[3] = Clinical PK crossover study of IR, MR1 and MR2 capsules, single 8 mg dose; format: in vivo, human
Text: Subjects will be screened for study eligibility within 28 days before administration of the first dose of study drug. Subjects who meet the study eligibility criteria will be admitted to the clinical research unit in the afternoon of the day before administration of the first dose of study drug (Period 1/Day −1).
Treatments A, B, and C will be separated by a minimum 7-day washout period. […] Administration of Treatment D may be separated from administration of Treatments A, B, and C by approximately 4 weeks to allow for analysis of the bioanalytical samples from the first 3 treatments.
A single dose, crossover clinical trial was conducted in 15 subjects ranging in age from 35-75 years.

[4] = following a single 8 mg dose of IR CX-8998
[5] = following a single 8 mg dose of MR1 CX-8998
[6] = following a single 8 mg dose of MR2 CX-8998

C=C(C)c1ccc(CC(=O)N[C@H](C)c2ccc(OCC(F)(F)F)cn2)cc1 [M01]
total safety margin, AUC24hr ([1]; Day 90, female): 13 fold | total safety margin, Css (animal Cmax / human estimated Css at steady state) ([1]; Day 90, female): 21 fold | total safety margin, AUC24hr ([1]; Day 90, male): 6.8 fold | total safety margin, Css (animal Cmax / human estimated Css at steady state) ([1]; Day 90, male): 13 fold | total safety margin, AUC24hr ([2]; Day 90, female): 5.6 fold | total safety margin, Css (animal Cmax / human estimated Css at steady state) ([2]; Day 90, female): 8 fold and 8.0 fold | total safety margin, AUC24hr ([2]; Day 90, male): 6.5 fold | total safety margin, Css (animal Cmax / human estimated Css at steady state) ([2]; Day 90, male): 10 fold | AUC72hr Ratio (metabolite to CX-8998) [3, 4]: 0.92 | Cmax Ratio (metabolite to CX-8998) [3, 4]: 0.14 | AUC72hr Ratio (metabolite to CX-8998) [3, 5]: 0.95 | Cmax Ratio (metabolite to CX-8998) [3, 5]: 0.27 | AUC72hr Ratio (metabolite to CX-8998) [3, 6]: 0.90 | Cmax Ratio (metabolite to CX-8998) [3, 6]: 0.35
